Experimental data published in ChEMBL document CHEMBL5055685, “Discovery of the First Potent IDO1/IDO2 Dual Inhibitors: A Promising Strategy for Cancer Immunotherapy” (J Med Chem, 2021).

Columns and labels:
[1] = target: T1, Indoleamine 2,3-dioxygenase 1 (Homo sapiens, UniProt P14902); assay: Inhibition of IDO1 in IFNgamma-stimulated human HeLa cells assessed as reduction in kynurenine formation measured after 48 hrs by spectrophotometry
Target sequence in this assay (P14902 whole entry): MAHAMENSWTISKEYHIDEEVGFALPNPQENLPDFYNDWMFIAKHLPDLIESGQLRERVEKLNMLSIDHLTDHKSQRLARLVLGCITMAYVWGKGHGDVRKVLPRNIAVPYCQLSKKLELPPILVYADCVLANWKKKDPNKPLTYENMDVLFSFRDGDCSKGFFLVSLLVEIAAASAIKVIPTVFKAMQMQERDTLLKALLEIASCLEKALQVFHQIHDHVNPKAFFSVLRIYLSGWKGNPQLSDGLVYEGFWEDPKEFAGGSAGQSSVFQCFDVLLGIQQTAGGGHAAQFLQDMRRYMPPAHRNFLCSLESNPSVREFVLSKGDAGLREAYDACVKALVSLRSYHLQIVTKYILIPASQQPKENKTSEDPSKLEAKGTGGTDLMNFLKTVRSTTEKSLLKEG

[2] = target: T2, Indoleamine 2,3-dioxygenase 2 (Homo sapiens) (UniProt Q6ZQW0); assay: Inhibition of IDO2 (unknown origin) assessed as reduction in kynurenine formation using L-tryptophan as substrate by methylene blue reagent based assay relative to control; design: concentration or dose not given beside the values; conditions: concentration not given here
T2 sequence (whole entry): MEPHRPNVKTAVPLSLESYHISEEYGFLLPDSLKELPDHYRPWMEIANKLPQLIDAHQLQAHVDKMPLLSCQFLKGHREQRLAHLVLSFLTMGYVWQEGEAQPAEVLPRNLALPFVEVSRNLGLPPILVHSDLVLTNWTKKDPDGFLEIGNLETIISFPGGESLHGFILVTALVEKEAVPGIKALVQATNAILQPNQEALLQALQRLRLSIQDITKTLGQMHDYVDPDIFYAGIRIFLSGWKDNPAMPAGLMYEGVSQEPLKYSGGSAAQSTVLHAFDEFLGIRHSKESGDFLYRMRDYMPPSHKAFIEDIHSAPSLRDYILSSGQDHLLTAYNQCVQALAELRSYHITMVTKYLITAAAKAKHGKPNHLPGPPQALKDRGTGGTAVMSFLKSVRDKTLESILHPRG

[3] = target: T1, Indoleamine 2,3-dioxygenase 1; assay: Inhibition of IDO1 (unknown origin) assessed as reduction in kynurenine formation using L-tryptophan as substrate by methylene blue reagent based assay relative to control; design: concentration or dose not given beside the values; conditions: concentration not given here
Target sequence in this assay (P14902 whole entry, looked up): as the sequence (P14902 whole entry) above

[4] = target: T1, Indoleamine 2,3-dioxygenase 1; assay: Inhibition of IDO1 (unknown origin) assessed as reduction in kynurenine formation using L-tryptophan as substrate by methylene blue reagent based assay
Target sequence in this assay (P14902 whole entry): as the sequence (P14902 whole entry) above

[5] = target: T3, Indoleamine 2,3-dioxygenase 2 (Homo sapiens, UniProt Q6ZQW0); assay: Inhibition of IDO2 (unknown origin) assessed as reduction in kynurenine formation using L-tryptophan as substrate by methylene blue reagent based assay
T3 sequence (Q6ZQW0 whole entry): T2 sequence (whole entry)

| IC50 [1] [nM] | inhibition [2] [%] | inhibition [3] [%] | IC50 [4] [nM] | IC50 [5] [nM] | SMILES |
| --- | --- | --- | --- | --- | --- |
| 13.6 | 13 | 38 |  |  | O/N=C(\Nc1ccc(F)c(Br)c1)c1nonc1NCCn1cc(-c2cccc(O)c2)nn1 |
|  |  |  | 53 | 958 | CCC(C)(O)c1cn(CCNc2nonc2/C(=N/O)Nc2ccc(F)c(Br)c2)nn1 (stereo not drawn) |
|  |  |  | 62 | 865 | O/N=C(\Nc1ccc(F)c(Br)c1)c1nonc1NCCn1cc(C2(O)CCCCC2)nn1 |
|  | 4 | 17 |  |  | O/N=C(\Nc1ccc(F)c(Br)c1)c1nonc1NCCn1cc(-c2ccccc2)nn1 |
|  |  |  | 127 | 830 | CCCCc1cn(CCNc2nonc2/C(=N/O)Nc2ccc(F)c(Br)c2)nn1 |
|  |  |  | 132 | 1870 | CC(C)(C)c1cn(CCNc2nonc2/C(=N/O)Nc2ccc(F)c(Br)c2)nn1 |
